# Results as given in publication PMC4280904 (Journal of Veterinary Pharmacology and Therapeutics, 2014).
# Marks after values point to notes of the source that are not given here.
# Experiments:
# [1] = Single dose and repeated; type: in vivo, beagle dogs; settings: 30 mg/kg tablets p.o.; for AUC(0-inf): AUCinf; for Vd/F: Vz/f
# [2] = Dose linearity of imepitoin after oral dosing; type: in vivo, beagle dogs; settings: for Cmax / Tmax: both, beagle, dog, plasma, po
# [3] = both, beagle, dog, plasma, po, 30 mg/kg, Fasted
# [4] = both, beagle, dog, plasma, po, 30 mg/kg, Fed
# [5] = both, beagle, dog, plasma, po, 30 mg/kg, Day 0, fed
# [6] = both, beagle, dog, plasma, po, 30 mg/kg, Day 5, fed
# [7] = female, beagle, dog, plasma, po, 30 mg/kg, Females
# [8] = male, beagle, dog, plasma, po, 30 mg/kg, Males
# [9] = male, beagle, dog, plasma, po, 30 mg/kg, Males, fed
smiles,measurement,setting,value
"O=C1N=C(N2CCOCC2)CN1c1ccc(Cl)cc1 [Imepitoin, 1-(4-chlorophenyl)-4-morpholino-imidazolin-2-one]",maximal plasma concentrations,[1]; beagle dogs,14.9 to 17.2 µg/mL
same,reduction of total AUC by co-administration with food,[1]; crossover fed vs fasted,30%
same,AUCinf greater for fasted dogs,[1]; fasted vs fed,30%
same,Tmax,[1]; Day 5 (after 4 days BID),1.75 ^* h
same,Terminal T½,[1]; Fasted,1.47 h
same,Terminal T½,[1]; Fed,1.95 ^* h
same,AUC(0-inf),[1]; [3],90300 ng·h/mL
same,AUC(0-inf),[1]; [4],69200 ng·h/mL
same,CL/F,[1]; [5],5.42 mL/min/kg
same,CL/F,[1]; [6],8.92 mL/min/kg
same,CL/F,[1]; [3],5.33 mL/min/kg
same,CL/F,[1]; [4],6.95 mL/min/kg
same,Cmax,[1]; [5],15000 ng/mL
same,Cmax,[1]; [6],14800 ng/mL
same,Cmax,[1]; [3],17200 ng/mL
same,Cmax,[1]; [4],14900 ng/mL
same,half-life,"[1]; both, beagle, dog, plasma, po, 30 mg/kg, Terminal T½, Fed",2 h
same,Tmax,"[1]; both, beagle, dog, plasma, po, 30 mg/kg, Tmax, Day 0, fed",2.6 h
same,Tmax,"[1]; both, beagle, dog, plasma, po, 30 mg/kg, Tmax, Day 5, fed",1.44 h
same,Tmax,"[1]; both, beagle, dog, plasma, po, 30 mg/kg, Tmax, Fasted",2.17 h
same,Tmax,"[1]; both, beagle, dog, plasma, po, 30 mg/kg, Tmax, Fed",2.02 h
same,Vd/F,[1]; [5],0.892 L/kg
same,Vd/F,[1]; [6],1.43 L/kg
same,Vd/F,[1]; [3],0.663 L/kg
same,Vd/F,[1]; [4],1.13 L/kg
same,CL/F,[1]; [7],5.83 mL/min/kg
same,Cmax,[1]; [7],18100 ng/mL
same,Tmax,"[1]; female, beagle, dog, plasma, po, 30 mg/kg, Tmax, Females",1.89 h
same,Vd/F,[1]; [7],0.833 L/kg
same,AUC(0-inf),[1]; [8],75500 ng·h/mL
same,CL/F,[1]; [8],6.33 mL/min/kg
same,CL/F,[1]; [9],7.33 mL/min/kg
same,Cmax,[1]; [8],14200 ng/mL
same,Cmax,[1]; [9],12500 ng/mL
same,Tmax,"[1]; male, beagle, dog, plasma, po, 30 mg/kg, Tmax, Males",2.3 h
same,Tmax,"[1]; male, beagle, dog, plasma, po, 30 mg/kg, Tmax, Males, fed",2.44 h
same,Vd/F,[1]; [8],0.899 L/kg
same,Vd/F,[1]; [9],1.19 L/kg
same,Cmax,[2]; 10 mg/kg,1820 ± 920 ng/mL
same,Tmax,[2]; 10 mg/kg,8.67 ± 3.1 h
same,Cmax,[2]; 20 mg/kg,3500 ± 1070 ng/mL
same,Tmax,[2]; 20 mg/kg,10.7 ± 4 h
same,Cmax,[2]; 50 mg/kg,6410 ± 1750 ng/mL
same,Tmax,[2]; 50 mg/kg,18 ± 3.8 h
same,Tmax,[2]; 100 mg/kg,8.67 ± 3.1 h
same,Tlag obs,"[2]; single dose 10 mg/kg p.o., enteric-coated capsules, mean ± SEM, n=6",3.67 ± 0.92 h
